Results as given in patent US9060517B2, “Nitrogenated heterocyclic compound and agricultural or horticultural fungicide” (Nippon Soda Co., Ltd., priority 2011, dated 2015).
Read-outs that look alike come from different tables or passages of the source.

Assays:
Type in all cases: in vivo
[1] = tested on: apple scab pathogen (Venturia inaequalis); experiment: Apple scab control test (100 ppm spray on apple seedlings); details: 336 h; apple seedlings (Ralls Janet), emulsion sprayed at 100 ppm, inoculated with Venturia inaequalis, 2 weeks
Description: Ralls Janet, leaf stage: 3 to 4) cultivated in unglazed pots and allowed to air-dry at room temperature. Subsequently, the seedlings were inoculated with conidiospores of apple scab pathogen (Venturia inaequalis) followed by holding for 2 weeks indoors at 20° C. and high humidity using a 12 hour light/dark cycle. The appearance of lesions on the leaves was compared with untreated seedlings to determine control effects.

[2] = tested on: cucumber gray mold pathogen (Botrytis cinerea); experiment: Cucumber gray mold control test; details: 96 h, cucumber seedlings (Sagami Hanjiro), emulsion sprayed at 100 ppm, 4 days
Description: Sagami Hanjiro, leaf stage: cotyledon) cultivated in unglazed pots, and allowed to air-dry at room temperature. Subsequently, the seedlings were drip-inoculated with conidiospore suspensions of cucumber gray mold pathogen (Botrytis cinerea) followed by holding for 4 days in a dark room at 20° C. and high humidity. The appearance of lesions on the leaves was compared with untreated seedlings to determine control effects.

[3] = tested on: rice blast pathogen (Magnaporthe grisea); details: rice seedlings (Koshihikari), 400 ppm dropped onto water surface, inoculated 14 days later
[4] = tested on: rice blast pathogen (Magnaporthe grisea); details: rice seedlings (Koshihikari), 400 ppm dropped onto water surface, inoculated two days later

## CC(C)(C=O)c1ncccc1Oc1cnc2c(F)cccc2c1 [a-21, 2-[3-(8-fluoro-quinolin-3-yloxy)-pyridin-2-yl]-2-methyl-propioaldehyde]
[1]
  pest or weed control at 100 ppm: ≥ 75%
[2]
  pest or weed control at 100 ppm: ≥ 75%

## CC(C)(C(=O)O)c1ncccc1Oc1cnc2c(F)cccc2c1 [a-19, 2-[3-(8-fluoro-quinolin-3-yloxy)-pyridin-2-yl]-2-methylpropionic acid]
[1]
  pest or weed control at 100 ppm: ≥ 75%

## CC(=O)C(C)(C)c1ncccc1Oc1cnc2c(F)cccc2c1 [a-15, 3-[3-(8-fluoro-quinolin-3-yloxy)-pyridin-2-yl]-3-methyl-butan-2-one]
[1]
  pest or weed control at 100 ppm: ≥ 75%
[2]
  pest or weed control at 100 ppm: ≥ 75%

## Cc1nc2c(F)cccc2cc1Oc1cccnc1C(C)(C)O [a-7, 2-[(8-fluoro-2-methylquinolin-3-yloxy)pyridine-2-yl]propan-2-ol]
[1]
  pest or weed control at 100 ppm: ≥ 75%
[2]
  pest or weed control at 100 ppm: ≥ 75%

## CCNC(=O)C(C)(C)c1ncccc1Oc1cnc2c(F)cccc2c1 [a-55, N-ethyl-2-[3-(8-fluoro-quinolin-3-yloxy)-pyridin-2-yl]-isobutylamide]
[1]
  pest or weed control at 100 ppm: ≥ 75%

## CCOC(=O)C(C)(C)c1ncccc1Oc1cnc2c(F)cccc2c1 [a-12, 2-[3-(8-fluoro-quinolin-3-yloxy)-pyridin-2-yl]-2-methylpropionic acid ethyl ester]
[1]
  pest or weed control at 100 ppm: ≥ 75%
[2]
  pest or weed control at 100 ppm: ≥ 75%

## CC(C)(C#N)c1ncccc1Oc1cnc2c(F)cccc2c1 [a-11, 2-[3-(8-fluoro-quinolin-3-yloxy)-pyridin-2-yl]-2-methylpropionitrile]
[1]
  pest or weed control at 100 ppm: ≥ 75%
[2]
  pest or weed control at 100 ppm: ≥ 75%

## CCOC(C)(C)c1ncccc1Oc1cc2cccc(F)c2nc1C [a-56, 3-[2-(2-ethoxy-2-propyl)pyridin-3-yloxy]-8-fluoro-2-methylquinoline]
[1]
  pest or weed control at 100 ppm: ≥ 75%
[2]
  pest or weed control at 100 ppm: ≥ 75%

## CC(C)(O)c1ncccc1Oc1cnc2c(F)cccc2c1 [a-8]
[3]
  control effects: B (Control value of 40% to less than 60%)

## CC(=O)C(C)(C)c1c(F)cccc1Oc1cnc2c(F)cccc2n1 [Compound 1-10, 3-[2-fluoro-6-(5-fluoro-quinoxalin-2-yloxy)-phenyl]-3-methyl-butan-2-one]
[1]
  pest or weed control at 100 ppm: ≥ 75%
[2]
  pest or weed control at 100 ppm: ≥ 75%

## COC(C)(C)c1ncccc1Oc1nc2ccc(F)c(F)c2nc1C [Compound 1-35, 5,6-difluoro-2-[2-(1-methoxy-1-methyl-ethyl)-pyridin-3-yloxy]-3-methyl-quinoxaline]
[1]
  pest or weed control at 100 ppm: ≥ 75%
[2]
  pest or weed control at 100 ppm: ≥ 75%

## CC(C)OC(=O)C(C)(C)c1ccccc1Oc1cnc2c(F)c(F)ccc2n1 [Compound 1-24]
[4]
  control effects: B (Control value of 40% to less than 60%)

## CC(=O)c1ncccc1Oc1cc2cccc(F)c2nc1C [a-9, 1-[3-(2-methyl-8-fluoroquinolin-3-yloxy)-pyridin-2-yl]-ethanone]
[1]
  pest or weed control at 100 ppm: ≥ 75%

## COC(C)(C)c1ncccc1Oc1cc2cccc(F)c2nc1C [a-16, 3-[2-(2-methoxy-2-propyl)pyridin-3-yloxy]-8-fluoro-2-methylquinoline]
[1]
  pest or weed control at 100 ppm: ≥ 75%
[2]
  pest or weed control at 100 ppm: ≥ 75%
